From ChEMBL document CHEMBL1201862, “PubChem BioAssay data set” (2004) come the findings set out here.

Test systems include A498; ACHN; EKVX; HCT-116; HCT-15; HL-60; Hs-578T; IGROV-1; K562; LOX IMVI; MDA-N; OVCAR-4; OVCAR-8; RXF 393; SF-539; SK-MEL-28; SK-MEL-2; SK-OV-3; SNB-75; UACC-62.
Experiment in all cases: growth of human tumour cells (NCI), 48 h

Molecules are shown by their SMILES.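 Step 1: Grow cells in 96-well plates. Step 2: Expose to compound for 48 hours at 5 concentrations. Step 3: Interpolate endpoints linearly; if unreached, use highest concentration. GI50 marks 50% less growth.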 Active and inactive are the calls of the source. No stated cut-off is given here; in the data, active = GI50 up to about 1.1 µM and inactive = higher.

`Nc1nc(SCc2ccccc2)c2ncn(Cc3ccccc3)c2n1`: the GI50 in the assay on A498 was > 44.9 µM (inactive); in the assay on ACHN, > 100 µM (inactive); with EKVX, > 100 µM (inactive); in the assay on HCT-116, > 100 µM (inactive); with HCT-15, above 81.3 µM; with HL-60, 4.56 µM (inactive). For the same compound, the GI50 with Hs-578T is > 100 µM (inactive); with IGROV-1, > 100 µM (inactive); in the assay on K562, > 87.3 µM (inactive); in the assay with LOX IMVI, > 100 µM (inactive); with MDA-N, > 100 µM (inactive); in the assay with OVCAR-4 it was > 100 µM (inactive). Moreover, the GI50 is > 100 µM (inactive) in the assay on OVCAR-8; 62.2 µM (inactive) in the assay on RXF 393; > 100 µM (inactive) with SF-539; > 100 µM (inactive) in the assay on SK-MEL-28; > 58.1 µM (inactive) in the assay with SK-MEL-2; > 100 µM (inactive) in the assay on SK-OV-3. Also, the GI50 is 35.8 µM (inactive) in the assay with SNB-75 and > 83 µM (inactive) in the assay on UACC-62.
For `Cc1cc(C(=O)CSC(=S)SC(C)(C)C)ccc1Cl`, the GI50 with A498 is 16.3 µM (inactive); in the assay with ACHN it was 25 µM (inactive); in the assay with EKVX, 24.5 µM (inactive); in the assay with HCT-116, 18.7 µM (inactive); in the assay with HCT-15, 22.3 µM; in the assay with HL-60, 18.4 µM (inactive). Besides, the GI50 with Hs-578T was 25.5 µM (inactive); with IGROV-1, 33.1 µM (inactive); in the assay on K562, 31.2 µM (inactive); in the assay on LOX IMVI, 19.9 µM (inactive); with MDA-N, 15.8 µM (inactive); with OVCAR-4 it was 31 µM (inactive). Besides, the GI50 with OVCAR-8 is 32.1 µM (inactive); in the assay on RXF 393, 13.4 µM (inactive); with SF-539, 18.7 µM (inactive); with SK-MEL-28, 19.8 µM (inactive); in the assay on SK-MEL-2, 19.9 µM (inactive); in the assay with SK-OV-3 it was 34.1 µM (inactive). Moreover, the GI50 with SNB-75 is 18.2 µM (inactive); with UACC-62, 16.1 µM (inactive).
For the compound `COc1ccc(N2N=NN(C(C)C)/C2=C(/Cl)c2nnnn2-c2ccc(OC)cc2)cc1`, the GI50 in the assay on A498 was 16 µM (inactive); with ACHN, 16.6 µM (inactive); in the assay with EKVX, 18.2 µM (inactive); in the assay with HCT-116, 5 µM (inactive); in the assay with HCT-15, 15.8 µM; with HL-60 it was 2.45 µM (inactive). The GI50 in the assay on Hs-578T is 22.1 µM (inactive); with IGROV-1, 14.9 µM (inactive); with K562, 3.9 µM (inactive); in the assay with LOX IMVI, 2 µM (inactive); with MDA-N, 13.6 µM (inactive); in the assay on OVCAR-4, 5.01 µM (inactive). Besides, the GI50 was 6.11 µM (inactive) in the assay on OVCAR-8; 13.8 µM (inactive) with RXF 393; 18.8 µM (inactive) in the assay on SF-539; 15.5 µM (inactive) in the assay with SK-MEL-28; 13.4 µM (inactive) in the assay with SK-MEL-2; 18.2 µM (inactive) in the assay on SK-OV-3. The GI50 in the assay on SNB-75 was 13 µM (inactive); in the assay with UACC-62 it was 14.4 µM (inactive).
Consider `N#CC1C(=O)SC2c3ccccc3C(=O)c3ccccc3C12` (stereo not given), for which the GI50 with A498 was > 10 µM (inactive); in the assay on ACHN it was > 10 µM (inactive); in the assay with EKVX, > 10 µM (inactive); with HCT-116 it was > 10 µM (inactive); in the assay on HCT-15, above 10 µM; in the assay with HL-60, > 10 µM (inactive). The GI50 with Hs-578T, with IGROV-1, with K562, in the assay on LOX IMVI, in the assay on MDA-N and in the assay on OVCAR-4 was > 10 µM (inactive) each time. Besides, the GI50 with OVCAR-8, with RXF 393, in the assay with SF-539, in the assay on SK-MEL-28, in the assay on SK-MEL-2 and in the assay on SK-OV-3 was > 10 µM (inactive) in each case. In addition, the GI50 was 3.26 µM (inactive) with SNB-75 and > 10 µM (inactive) with UACC-62.
Consider `CC(C)(CO)NC1=C(Cl)C(=O)c2c(O)ccc(O)c2C1=O`, for which the GI50 in the assay with A498 was 1.84 µM (inactive); in the assay with ACHN it was 1.7 µM (inactive); with EKVX, 1.87 µM (inactive); with HCT-116 it was 1.57 µM (inactive); with HCT-15 it was 0.557 µM; in the assay with HL-60 it was 0.233 µM (active). Also, the GI50 is 0.743 µM (active) in the assay with Hs-578T; 1.58 µM (inactive) with IGROV-1; 0.104 µM (active) in the assay on K562; 0.45 µM (active) with LOX IMVI; 0.885 µM (active) in the assay with MDA-N; 1.57 µM (inactive) in the assay with OVCAR-4. Further, the GI50 was 1.29 µM (inactive) in the assay on OVCAR-8; 1.85 µM (inactive) in the assay on RXF 393; 1.39 µM (inactive) with SF-539; 1.89 µM (inactive) in the assay with SK-MEL-28; 2.32 µM (inactive) in the assay with SK-MEL-2; 1.57 µM (inactive) in the assay on SK-OV-3. The GI50 in the assay with SNB-75 is 1.31 µM (inactive); with UACC-62 it was 1.35 µM (inactive).
In the case of `CC(C)(C)[Si](C)(C)OCC1OC(n2cnc3c(=O)[nH]c(N)nc32)C(O[Si](C)(C)C(C)(C)C)C1O[Si](C)(C)C(C)(C)C` (stereo not given), the GI50 is 2.39 µM (inactive) in the assay with A498; 2.08 µM (inactive) in the assay with ACHN; 19.5 µM (inactive) in the assay on EKVX; 1.49 µM (inactive) with HCT-116; above 46.9 µM in the assay with HCT-15; 0.849 µM (active) in the assay on HL-60. The GI50 in the assay on Hs-578T was 2.46 µM (inactive); with IGROV-1, 1.92 µM (inactive); in the assay with K562 it was 1.22 µM (inactive); in the assay with LOX IMVI it was 2.09 µM (inactive); in the assay with MDA-N it was 1.57 µM (inactive); in the assay with OVCAR-4, 1.74 µM (inactive). In addition, the GI50 with OVCAR-8 was 3.2 µM (inactive); with RXF 393 it was 2.04 µM (inactive); in the assay on SF-539, 2.17 µM (inactive); in the assay on SK-MEL-28 it was 1.93 µM (inactive); in the assay on SK-MEL-2, 0.176 µM (active); in the assay on SK-OV-3, 1.95 µM (inactive). Moreover, the GI50 is 3.11 µM (inactive) with SNB-75 and 1.22 µM (inactive) with UACC-62.
For the compound `CC(=O)/C(=C/NC(=S)c1cccnc1)C(=O)Nc1ccccc1C`, the GI50 in the assay on A498 is > 100 µM (inactive); in the assay on ACHN it was > 100 µM (inactive); in the assay on EKVX, > 100 µM (inactive); in the assay on HCT-116, 83 µM (inactive); in the assay with HCT-15, above 100 µM; in the assay on HL-60, 2.37 µM (inactive). The GI50 in the assay with Hs-578T, with IGROV-1, in the assay with K562, in the assay with LOX IMVI, in the assay on MDA-N and in the assay with OVCAR-4 was > 100 µM (inactive) throughout. Further, the GI50 in the assay on OVCAR-8 is 52.6 µM (inactive); in the assay with RXF 393, > 100 µM (inactive); in the assay with SF-539, 30.9 µM (inactive); in the assay with SK-MEL-28, > 100 µM (inactive); in the assay with SK-MEL-2 it was > 100 µM (inactive); with SK-OV-3, > 100 µM (inactive). For the same compound, the GI50 in the assay with SNB-75 and in the assay on UACC-62 was > 100 µM (inactive) each time.
Turning to `COc1ccc(N2C(=O)C(=O)N(c3ccccc3[N+](=O)[O-])C2=S)cc1`, the GI50 with A498 is 27 µM (inactive); with ACHN it was 28.4 µM (inactive); in the assay on EKVX, 30.5 µM (inactive); in the assay with HCT-116, 28.6 µM (inactive); in the assay with HCT-15 it was 18.2 µM; with HL-60, 46 µM (inactive). The GI50 in the assay on Hs-578T is 22.7 µM (inactive); with IGROV-1, 34.8 µM (inactive); with K562, 32.1 µM (inactive); in the assay on LOX IMVI it was 16.6 µM (inactive); in the assay on MDA-N, 27 µM (inactive); in the assay on OVCAR-4 it was 18.9 µM (inactive). Besides, the GI50 in the assay with OVCAR-8 was 21.1 µM (inactive); with RXF 393, 18 µM (inactive); in the assay with SF-539, 30.1 µM (inactive); in the assay with SK-MEL-28, 33 µM (inactive); in the assay with SK-MEL-2, 14.6 µM (inactive); in the assay on SK-OV-3 it was 25.1 µM (inactive). For the same compound, the values for the GI50 with SNB-75 and in the assay on UACC-62 were 27.1 µM (inactive) and 17.5 µM (inactive), respectively.
Consider `CCCCOC(=O)C(O)Cc1ccoc1` (stereo not given), for which the GI50 in the assay with A498 is > 100 µM (inactive); in the assay on ACHN it was > 100 µM (inactive); with EKVX, > 100 µM (inactive); with HCT-116, > 100 µM (inactive); in the assay with HCT-15 it was above 100 µM; with HL-60, > 100 µM (inactive). For the same compound, the GI50 in the assay with Hs-578T, in the assay on IGROV-1, in the assay on K562, with LOX IMVI, with MDA-N and in the assay with OVCAR-4 was > 100 µM (inactive) throughout. The GI50 with OVCAR-8, in the assay on RXF 393, in the assay with SF-539, with SK-MEL-28, in the assay on SK-MEL-2 and in the assay with SK-OV-3 was > 100 µM (inactive) each time. Further, the GI50 in the assay on SNB-75 and in the assay on UACC-62 was > 100 µM (inactive) in each case.
Take `C[C@@H](CN1CC(=O)NC(=O)C1)N1CC(=O)NC(=O)C1` [DEXRAZOXANE]: the GI50 with A498 is 221 µM (inactive); in the assay on ACHN, 139 µM (inactive); with EKVX it was 173 µM (inactive); in the assay on HCT-116, 118 µM (inactive); in the assay with HCT-15 it was 122 µM; with HL-60, 51.1 µM (inactive). In addition, the GI50 is 320 µM (inactive) with Hs-578T; 356 µM (inactive) in the assay with IGROV-1; 301 µM (inactive) in the assay with K562; 236 µM (inactive) in the assay with LOX IMVI; 241 µM (inactive) in the assay with MDA-N; 115 µM (inactive) in the assay on OVCAR-4. The GI50 with OVCAR-8 is 282 µM (inactive); with RXF 393 it was 272 µM (inactive); in the assay with SF-539 it was 332 µM (inactive); with SK-MEL-28 it was 458 µM (inactive); with SK-MEL-2, 246 µM (inactive); in the assay on SK-OV-3, 227 µM (inactive). For the same compound, the GI50 was 318 µM (inactive) in the assay on SNB-75 and 147 µM (inactive) in the assay with UACC-62.
